Values after ≈ are worked out from the molar mass of the structure shown.
What was measured:
Type in all cases: cell-based
Escherichia coli NIHJ = assay: MIC against standard strain, plate method; details: unit assumed
In short: (§1)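 Plate-method MIC. Medium: heart infusion agar, pH 7.4. Inoculum: 10^4 cells per plate (10^6 cells/ml).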

Klebsiella pneumoniae [1] = assay: MIC against standard strain, plate method; details: unit assumed
In short: as §1

Proteus vulgaris 3027 = assay: MIC against standard strain, plate method; details: Proteus vulgaris 3027, standard strain; unit assumed
In short: as §1

[2] = test system: Pseudomonas aeruginosa I.F.O.; assay: MIC against standard strain, plate method; details: unit assumed
In short: as §1

[3] = test system: Staphylococcus aureus 209p; assay: MIC against standard strain, plate method; details: unit assumed
In short: as §1

Staphylococcus aureus = assay: MIC against clinical isolates; details: unit assumed
Escherichia coli = assay: MIC against clinical isolates; details: unit assumed
Pseudomonas aeruginosa = assay: MIC against clinical isolates; details: unit assumed
Klebsiella pneumoniae [4] = assay: MIC against clinical isolates; details: unit assumed
Proteus mirabilis = assay: MIC against clinical isolates; details: clinical isolate, unit assumed
Proteus morganii = assay: MIC against clinical isolates; details: clinical isolate, unit assumed
Proteus vulgaris = assay: MIC against clinical isolates; details: clinical isolate, unit assumed
Proteus rettgeri = assay: MIC against clinical isolates; details: clinical isolate, unit assumed

Cc1nnc(SCC2=C(C(=O)O)N3C(=O)C(NC(=O)C(NC(=O)N4CCN(C)C(=O)C4=O)c4ccccc4)C3SC2)s1 (single isomer, unassigned) [compound 62]
MIC (Escherichia coli NIHJ): < 0.1 µg/mL | MIC (Klebsiella pneumoniae [1]): 1.57 µg/mL (≈ 2.49 µM) | MIC (Proteus vulgaris 3027): 3.13 µg/mL (≈ 4.95 µM) | MIC [2]: 50 µg/mL (≈ 79.1 µM) | MIC [3]: 0.79 µg/mL (≈ 1.25 µM) | MIC (Staphylococcus aureus; clinical isolate F-1): 3.13 µg/mL (≈ 4.95 µM) | MIC (Staphylococcus aureus; clinical isolate F-2): 0.78 µg/mL (≈ 1.23 µM) | MIC (Staphylococcus aureus; clinical isolate F-3): 1.56 µg/mL (≈ 2.47 µM) | MIC (Staphylococcus aureus; clinical isolate F-4): 1.56 µg/mL (≈ 2.47 µM) | MIC (Staphylococcus aureus; clinical isolate F-5): 12.5 µg/mL (≈ 19.8 µM) | MIC (Staphylococcus aureus; clinical isolate MS 8588): 1.56 µg/mL (≈ 2.47 µM) | MIC (Staphylococcus aureus; clinical isolate MS 8596): 0.78 µg/mL (≈ 1.23 µM) | MIC (Staphylococcus aureus; clinical isolate MS 8619): 0.78 µg/mL (≈ 1.23 µM) | MIC (Staphylococcus aureus; clinical isolate MS 8684): 1.56 µg/mL (≈ 2.47 µM) | MIC (Staphylococcus aureus; clinical isolate MS 8713): 1.56 µg/mL (≈ 2.47 µM) | MIC (Escherichia coli; clinical isolate GN 3435): 6.25 µg/mL (≈ 9.89 µM) | MIC (Escherichia coli; clinical isolate GN 3452): 6.25 µg/mL (≈ 9.89 µM) | MIC (Escherichia coli; clinical isolate GN 3465): 25 µg/mL (≈ 39.6 µM) | MIC (Escherichia coli; clinical isolate GN 3481): 6.25 µg/mL (≈ 9.89 µM) | MIC (Escherichia coli; clinical isolate GN 3611): 200 µg/mL (≈ 317 µM) | MIC (Escherichia coli; clinical isolate K-1): 6.25 µg/mL (≈ 9.89 µM) | MIC (Escherichia coli; clinical isolate K-2): 12.5 µg/mL (≈ 19.8 µM) | MIC (Escherichia coli; clinical isolate K-3): 200 µg/mL (≈ 317 µM) | MIC (Escherichia coli; clinical isolate K-4): 12.5 µg/mL (≈ 19.8 µM) | MIC (Pseudomonas aeruginosa; clinical isolate GN 82): 100 µg/mL (≈ 158 µM) | MIC (Pseudomonas aeruginosa; clinical isolate GN 163): 50 µg/mL (≈ 79.1 µM) | MIC (Pseudomonas aeruginosa; clinical isolate GN 221): 50 µg/mL (≈ 79.1 µM) | MIC (Pseudomonas aeruginosa; clinical isolate GN 244): 100 µg/mL (≈ 158 µM) | MIC (Pseudomonas aeruginosa; clinical isolate GN 376): 100 µg/mL (≈ 158 µM) | MIC (Pseudomonas aeruginosa; clinical isolate GN 383): 100 µg/mL (≈ 158 µM) | MIC (Pseudomonas aeruginosa; clinical isolate GN 1035): 200 µg/mL (≈ 317 µM) | MIC (Pseudomonas aeruginosa; clinical isolate GN 1091): 100 µg/mL (≈ 158 µM) | MIC (Pseudomonas aeruginosa; clinical isolate GN 2565): 100 µg/mL (≈ 158 µM) | MIC (Pseudomonas aeruginosa; clinical isolate GN 2987): 50 µg/mL (≈ 79.1 µM) | MIC (Pseudomonas aeruginosa; clinical isolate S-1): 200 µg/mL (≈ 317 µM) | MIC (Pseudomonas aeruginosa; clinical isolate S-2): 200 µg/mL (≈ 317 µM) | MIC (Pseudomonas aeruginosa; clinical isolate S-3): 200 µg/mL (≈ 317 µM) | MIC (Pseudomonas aeruginosa; clinical isolate S-4): 200 µg/mL (≈ 317 µM) | MIC (Klebsiella pneumoniae [4]; clinical isolate GN 917): 6.25 µg/mL (≈ 9.89 µM) | MIC (Klebsiella pneumoniae [4]; clinical isolate GN 4081): 12.5 µg/mL (≈ 19.8 µM) | MIC (Klebsiella pneumoniae [4]; clinical isolate GN 4117): 25 µg/mL (≈ 39.6 µM) | MIC (Proteus mirabilis): 6.25 µg/mL (≈ 9.89 µM) | MIC (Proteus morganii): 3.13 µg/mL (≈ 4.95 µM) | MIC (Proteus vulgaris): 3.13 µg/mL (≈ 4.95 µM) | MIC (Proteus rettgeri): 6.25 µg/mL (≈ 9.89 µM)

CC(=O)OCC1=C(C(=O)O)N2C(=O)C(NC(=O)C(NC(=O)N3CCN(C)C(=O)C3=O)c3ccccc3)C2SC1 (single isomer, unassigned) [compound 60]
MIC (Escherichia coli NIHJ): < 0.1 µg/mL | MIC (Klebsiella pneumoniae [1]): 3.13 µg/mL (≈ 5.59 µM) | MIC (Proteus vulgaris 3027): 3.13 µg/mL (≈ 5.59 µM) | MIC [2]: 25 µg/mL (≈ 44.7 µM) | MIC [3]: 0.79 µg/mL (≈ 1.41 µM) | MIC (Staphylococcus aureus; clinical isolate F-1): 3.13 µg/mL (≈ 5.59 µM) | MIC (Staphylococcus aureus; clinical isolate F-2): 0.78 µg/mL (≈ 1.39 µM) | MIC (Staphylococcus aureus; clinical isolate F-3): 1.56 µg/mL (≈ 2.79 µM) | MIC (Staphylococcus aureus; clinical isolate F-4): 1.56 µg/mL (≈ 2.79 µM) | MIC (Staphylococcus aureus; clinical isolate F-5): 50 µg/mL (≈ 89.4 µM) | MIC (Staphylococcus aureus; clinical isolate MS 8588): 1.56 µg/mL (≈ 2.79 µM) | MIC (Staphylococcus aureus; clinical isolate MS 8596): 0.78 µg/mL (≈ 1.39 µM) | MIC (Staphylococcus aureus; clinical isolate MS 8619): 0.78 µg/mL (≈ 1.39 µM) | MIC (Staphylococcus aureus; clinical isolate MS 8684): 1.56 µg/mL (≈ 2.79 µM) | MIC (Staphylococcus aureus; clinical isolate MS 8713): 0.78 µg/mL (≈ 1.39 µM) | MIC (Escherichia coli; clinical isolate GN 3435): 6.25 µg/mL (≈ 11.2 µM) | MIC (Escherichia coli; clinical isolate GN 3452): 12.5 µg/mL (≈ 22.3 µM) | MIC (Escherichia coli; clinical isolate GN 3465): 100 µg/mL (≈ 179 µM) | MIC (Escherichia coli; clinical isolate GN 3481): 6.25 µg/mL (≈ 11.2 µM) | MIC (Escherichia coli; clinical isolate GN 3611): > 200 µg/mL | MIC (Escherichia coli; clinical isolate K-1): 6.25 µg/mL (≈ 11.2 µM) | MIC (Escherichia coli; clinical isolate K-2): 12.5 µg/mL (≈ 22.3 µM) | MIC (Escherichia coli; clinical isolate K-3): 200 µg/mL (≈ 357 µM) | MIC (Escherichia coli; clinical isolate K-4): 25 µg/mL (≈ 44.7 µM) | MIC (Pseudomonas aeruginosa; clinical isolate GN 82): 50 µg/mL (≈ 89.4 µM) | MIC (Pseudomonas aeruginosa; clinical isolate GN 163): 50 µg/mL (≈ 89.4 µM) | MIC (Pseudomonas aeruginosa; clinical isolate GN 221): 12.5 µg/mL (≈ 22.3 µM) | MIC (Pseudomonas aeruginosa; clinical isolate GN 244): 50 µg/mL (≈ 89.4 µM) | MIC (Pseudomonas aeruginosa; clinical isolate GN 376): 50 µg/mL (≈ 89.4 µM) | MIC (Pseudomonas aeruginosa; clinical isolate GN 383): 50 µg/mL (≈ 89.4 µM) | MIC (Pseudomonas aeruginosa; clinical isolate GN 1035): 200 µg/mL (≈ 357 µM) | MIC (Pseudomonas aeruginosa; clinical isolate GN 1091): 50 µg/mL (≈ 89.4 µM) | MIC (Pseudomonas aeruginosa; clinical isolate GN 2565): 100 µg/mL (≈ 179 µM) | MIC (Pseudomonas aeruginosa; clinical isolate GN 2987): 50 µg/mL (≈ 89.4 µM) | MIC (Pseudomonas aeruginosa; clinical isolate S-1): 200 µg/mL (≈ 357 µM) | MIC (Pseudomonas aeruginosa; clinical isolate S-2): 100 µg/mL (≈ 179 µM) | MIC (Pseudomonas aeruginosa; clinical isolate S-3): 100 µg/mL (≈ 179 µM) | MIC (Pseudomonas aeruginosa; clinical isolate S-4): 100 µg/mL (≈ 179 µM) | MIC (Klebsiella pneumoniae [4]; clinical isolate GN 917): 6.25 µg/mL (≈ 11.2 µM) | MIC (Klebsiella pneumoniae [4]; clinical isolate GN 4081): 25 µg/mL (≈ 44.7 µM) | MIC (Klebsiella pneumoniae [4]; clinical isolate GN 4117): 25 µg/mL (≈ 44.7 µM) | MIC (Proteus mirabilis): 3.13 µg/mL (≈ 5.59 µM) | MIC (Proteus morganii): 3.13 µg/mL (≈ 5.59 µM) | MIC (Proteus vulgaris): 1.56 µg/mL (≈ 2.79 µM) | MIC (Proteus rettgeri): 6.25 µg/mL (≈ 11.2 µM)
